Calls of active or inactive are those of the source. No cut-off for these calls is given here.
Assays:
[1] = molecular target: B-cell lymphoma 6 protein (Homo sapiens, UniProt P41182); test: BCL6:BCOR ULight TR-FRET
[2] = molecular target: Prostaglandin G/H synthase 1 (Homo sapiens) (UniProt P23219); test: COX-1 Eurofins SafetyScreen44 (BI); settings: Compound concentration 10.0 uM
[3] = molecular target: T1, 5-hydroxytryptamine receptor 1A (Homo sapiens) (UniProt P08908); test: 5HT1A/H Eurofins SafetyScreen44 (BI); settings: Compound concentration 10.0 uM
T1 sequence (whole entry): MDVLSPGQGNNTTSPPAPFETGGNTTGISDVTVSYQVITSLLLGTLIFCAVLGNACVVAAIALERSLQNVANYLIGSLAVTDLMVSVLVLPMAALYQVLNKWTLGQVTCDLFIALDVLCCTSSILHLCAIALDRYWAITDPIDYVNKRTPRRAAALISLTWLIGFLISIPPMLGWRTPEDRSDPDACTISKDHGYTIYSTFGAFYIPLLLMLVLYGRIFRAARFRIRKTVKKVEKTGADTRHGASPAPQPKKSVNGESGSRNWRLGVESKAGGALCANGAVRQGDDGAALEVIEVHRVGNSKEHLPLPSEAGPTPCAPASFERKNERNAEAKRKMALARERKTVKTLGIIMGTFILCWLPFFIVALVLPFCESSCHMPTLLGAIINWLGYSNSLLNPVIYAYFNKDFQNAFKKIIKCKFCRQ

[4] = molecular target: 5-hydroxytryptamine receptor 2A (Homo sapiens) (UniProt P28223); test: 5HT2AH_AGON Eurofins SafetyScreen44 (BI); settings: filed as agonist, Compound concentration 10.0 uM
5-hydroxytryptamine receptor 2A (Homo sapiens), sequence (P28223 whole entry): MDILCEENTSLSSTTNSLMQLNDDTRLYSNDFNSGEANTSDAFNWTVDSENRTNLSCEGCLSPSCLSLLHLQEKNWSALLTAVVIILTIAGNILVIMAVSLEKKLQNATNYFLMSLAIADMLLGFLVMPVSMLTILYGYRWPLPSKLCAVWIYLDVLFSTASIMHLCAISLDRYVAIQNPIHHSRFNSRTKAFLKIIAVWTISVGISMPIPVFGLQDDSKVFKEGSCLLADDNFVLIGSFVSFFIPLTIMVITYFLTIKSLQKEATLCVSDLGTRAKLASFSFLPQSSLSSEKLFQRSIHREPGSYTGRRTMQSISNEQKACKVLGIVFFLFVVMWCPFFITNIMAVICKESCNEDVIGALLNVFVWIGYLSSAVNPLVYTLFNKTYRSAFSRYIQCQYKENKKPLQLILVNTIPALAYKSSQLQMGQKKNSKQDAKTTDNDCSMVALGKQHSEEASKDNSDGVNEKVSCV

[5] = molecular target: Adenosine receptor A2a (Homo sapiens) (UniProt P29274); test: A2A/H Eurofins SafetyScreen44 (BI); settings: filed as antagonist, Compound concentration 10.0 uM
Adenosine receptor A2a (Homo sapiens), sequence (P29274 whole entry): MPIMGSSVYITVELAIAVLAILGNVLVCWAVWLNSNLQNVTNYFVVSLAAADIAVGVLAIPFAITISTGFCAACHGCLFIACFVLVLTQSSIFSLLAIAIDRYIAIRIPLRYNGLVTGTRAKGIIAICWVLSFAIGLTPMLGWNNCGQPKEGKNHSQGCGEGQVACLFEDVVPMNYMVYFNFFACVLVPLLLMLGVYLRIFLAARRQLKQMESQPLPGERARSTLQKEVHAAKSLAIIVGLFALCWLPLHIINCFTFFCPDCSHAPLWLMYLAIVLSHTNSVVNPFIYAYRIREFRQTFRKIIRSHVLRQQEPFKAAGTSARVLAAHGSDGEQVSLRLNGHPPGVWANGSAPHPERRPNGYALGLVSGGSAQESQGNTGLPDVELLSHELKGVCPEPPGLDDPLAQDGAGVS

[6] = molecular target: Angiotensin-converting enzyme (Homo sapiens) (UniProt P12821); test: ACE(HU_AMTCH400) Eurofins SafetyScreen44 (BI); settings: Compound concentration 10.0 uM
[7] = molecular target: T2, Alpha-2A adrenergic receptor (Homo sapiens) (UniProt P08913); test: ALPHA2A/HU Eurofins SafetyScreen44 (BI); settings: Compound concentration 10.0 uM
T2 sequence (whole entry): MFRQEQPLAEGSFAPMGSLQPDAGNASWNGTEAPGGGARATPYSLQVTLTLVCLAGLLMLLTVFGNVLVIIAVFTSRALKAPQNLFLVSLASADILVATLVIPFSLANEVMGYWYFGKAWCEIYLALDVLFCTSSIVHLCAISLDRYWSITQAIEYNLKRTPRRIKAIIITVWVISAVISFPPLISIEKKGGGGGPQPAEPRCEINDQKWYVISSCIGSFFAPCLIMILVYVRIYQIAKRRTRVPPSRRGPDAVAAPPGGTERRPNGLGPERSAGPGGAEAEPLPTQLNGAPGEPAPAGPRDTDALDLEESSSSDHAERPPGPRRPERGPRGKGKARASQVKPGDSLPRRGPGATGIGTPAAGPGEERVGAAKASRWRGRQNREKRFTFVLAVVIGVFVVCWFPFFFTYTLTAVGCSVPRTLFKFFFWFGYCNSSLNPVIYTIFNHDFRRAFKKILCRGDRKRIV

[8] = molecular target: Androgen receptor (Homo sapiens) (UniProt P10275); test: ANDROGEN/H Eurofins SafetyScreen44 (BI); settings: Compound concentration 10.0 uM
Androgen receptor (Homo sapiens), sequence (P10275 whole entry): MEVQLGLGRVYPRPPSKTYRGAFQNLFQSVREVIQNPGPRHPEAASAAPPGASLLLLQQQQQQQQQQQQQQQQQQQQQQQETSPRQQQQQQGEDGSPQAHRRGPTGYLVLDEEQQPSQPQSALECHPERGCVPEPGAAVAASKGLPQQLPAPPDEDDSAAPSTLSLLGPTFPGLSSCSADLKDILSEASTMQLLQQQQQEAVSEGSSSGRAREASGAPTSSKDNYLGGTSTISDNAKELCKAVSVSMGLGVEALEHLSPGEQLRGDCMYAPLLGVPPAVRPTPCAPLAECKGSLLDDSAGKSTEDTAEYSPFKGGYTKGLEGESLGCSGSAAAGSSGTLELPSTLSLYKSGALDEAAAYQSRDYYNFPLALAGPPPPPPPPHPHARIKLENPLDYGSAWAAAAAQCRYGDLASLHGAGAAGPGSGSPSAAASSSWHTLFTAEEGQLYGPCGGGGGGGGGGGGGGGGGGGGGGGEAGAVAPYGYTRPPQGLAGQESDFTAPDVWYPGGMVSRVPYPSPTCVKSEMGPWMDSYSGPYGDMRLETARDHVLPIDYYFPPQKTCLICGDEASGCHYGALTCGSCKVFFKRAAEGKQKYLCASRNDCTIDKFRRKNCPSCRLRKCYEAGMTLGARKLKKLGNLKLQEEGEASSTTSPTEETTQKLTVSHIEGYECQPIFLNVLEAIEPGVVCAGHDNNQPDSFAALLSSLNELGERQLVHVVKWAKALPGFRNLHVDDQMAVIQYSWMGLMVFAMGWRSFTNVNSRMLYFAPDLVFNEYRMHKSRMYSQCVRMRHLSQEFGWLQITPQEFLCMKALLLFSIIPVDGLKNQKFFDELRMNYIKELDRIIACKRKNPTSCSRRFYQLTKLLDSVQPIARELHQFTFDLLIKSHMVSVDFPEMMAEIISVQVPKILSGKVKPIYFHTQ

[9] = molecular target: Beta-1 adrenergic receptor (Homo sapiens) (UniProt P08588); test: BETA1/HUM Eurofins SafetyScreen44 (BI); settings: Compound concentration 10.0 uM
[10] = molecular target: Beta-2 adrenergic receptor (Homo sapiens) (UniProt P07550); test: BETA2/HUM Eurofins SafetyScreen44 (BI); settings: filed as antagonist, Compound concentration 10.0 uM
[11] = molecular target: L-type Ca2+ channel (dihydropyridine site), Voltage-dependent L-type calcium channel subunit alpha-1C (Rattus norvegicus, UniProt P22002); test: CA+/DHPSI/R Eurofins SafetyScreen44 (BI); settings: rat brain, probe [3H](+)PN200-110, compound concentration 10 uM, read-out: % Ctrl
[12] = molecular target: Cannabinoid receptor 2 (Homo sapiens) (UniProt P34972); test: CB2/PERIPH/H Eurofins SafetyScreen44 (BI); settings: Compound concentration 10.0 uM
Cannabinoid receptor 2 (Homo sapiens), sequence (P34972 whole entry): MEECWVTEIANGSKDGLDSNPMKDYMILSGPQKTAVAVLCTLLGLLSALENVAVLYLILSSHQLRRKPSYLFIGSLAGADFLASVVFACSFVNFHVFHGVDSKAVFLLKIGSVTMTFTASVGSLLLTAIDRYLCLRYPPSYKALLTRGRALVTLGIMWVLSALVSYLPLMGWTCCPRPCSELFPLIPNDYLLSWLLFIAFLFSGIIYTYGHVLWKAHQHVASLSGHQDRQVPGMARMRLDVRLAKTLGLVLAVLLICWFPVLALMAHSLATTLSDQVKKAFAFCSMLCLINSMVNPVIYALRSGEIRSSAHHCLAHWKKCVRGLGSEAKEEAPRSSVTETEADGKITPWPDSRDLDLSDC

[13] = molecular target: Cholecystokinin receptor type A (Homo sapiens) (UniProt P32238); test: CCKA/H Eurofins SafetyScreen44 (BI); settings: Compound concentration 10.0 uM
[14] = molecular target: D(2) dopamine receptor (Homo sapiens) (UniProt P14416); test: D2SH_AGON Eurofins SafetyScreen44 (BI); settings: filed as agonist, Compound concentration 10.0 uM
[15] = molecular target: Delta-type opioid receptor (Homo sapiens) (UniProt P41143); test: DELTA2/H Eurofins SafetyScreen44 (BI); settings: Compound concentration 10.0 uM
[16] = molecular target: Glucocorticoid receptor (Homo sapiens) (UniProt P04150); test: GCORTICOID/H Eurofins SafetyScreen44 (BI); settings: Compound concentration 10.0 uM
Glucocorticoid receptor (Homo sapiens), sequence (P04150 whole entry): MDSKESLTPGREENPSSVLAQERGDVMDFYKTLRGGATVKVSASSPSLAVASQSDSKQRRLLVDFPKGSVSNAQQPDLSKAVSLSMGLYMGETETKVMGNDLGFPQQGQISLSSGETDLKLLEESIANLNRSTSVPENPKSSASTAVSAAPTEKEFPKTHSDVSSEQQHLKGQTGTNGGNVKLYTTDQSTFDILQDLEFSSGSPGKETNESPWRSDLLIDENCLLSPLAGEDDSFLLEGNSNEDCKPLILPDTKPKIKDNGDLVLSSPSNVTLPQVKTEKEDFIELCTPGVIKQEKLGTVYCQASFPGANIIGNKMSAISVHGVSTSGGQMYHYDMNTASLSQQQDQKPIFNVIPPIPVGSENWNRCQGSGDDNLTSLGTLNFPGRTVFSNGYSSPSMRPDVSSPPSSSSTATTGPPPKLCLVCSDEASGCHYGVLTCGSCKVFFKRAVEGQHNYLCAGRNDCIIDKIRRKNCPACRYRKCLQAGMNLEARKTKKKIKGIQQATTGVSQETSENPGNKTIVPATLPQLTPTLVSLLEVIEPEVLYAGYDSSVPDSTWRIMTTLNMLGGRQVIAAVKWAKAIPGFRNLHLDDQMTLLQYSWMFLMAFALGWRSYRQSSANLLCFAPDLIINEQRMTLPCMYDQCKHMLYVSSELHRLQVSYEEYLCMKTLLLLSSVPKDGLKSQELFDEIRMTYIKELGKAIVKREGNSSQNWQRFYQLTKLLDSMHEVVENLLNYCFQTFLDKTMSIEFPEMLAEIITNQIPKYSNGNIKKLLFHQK

[17] = molecular target: Histamine H1 receptor (Homo sapiens) (UniProt P35367); test: H1/PYRIL/HS Eurofins SafetyScreen44 (BI); settings: Compound concentration 10.0 uM
[18] = molecular target: Muscarinic acetylcholine receptor M1 (Homo sapiens) (UniProt P11229); test: M1/H Eurofins SafetyScreen44 (BI); settings: Compound concentration 10.0 uM
Muscarinic acetylcholine receptor M1 (Homo sapiens), sequence (P11229 whole entry): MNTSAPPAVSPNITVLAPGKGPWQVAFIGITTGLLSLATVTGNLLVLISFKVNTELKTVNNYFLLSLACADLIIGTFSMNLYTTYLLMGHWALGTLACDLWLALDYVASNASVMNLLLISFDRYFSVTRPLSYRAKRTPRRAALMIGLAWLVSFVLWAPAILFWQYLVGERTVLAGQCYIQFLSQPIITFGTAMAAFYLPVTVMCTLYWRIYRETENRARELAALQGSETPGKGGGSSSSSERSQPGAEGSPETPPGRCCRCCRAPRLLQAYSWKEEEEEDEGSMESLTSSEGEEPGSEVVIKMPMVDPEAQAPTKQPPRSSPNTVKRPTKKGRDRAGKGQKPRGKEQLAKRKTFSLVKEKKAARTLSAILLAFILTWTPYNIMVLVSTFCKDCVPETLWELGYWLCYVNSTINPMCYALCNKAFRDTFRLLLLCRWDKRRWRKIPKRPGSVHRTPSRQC

[19] = molecular target: T3, Muscarinic acetylcholine receptor M2 (Homo sapiens) (UniProt P08172); test: M2/H Eurofins SafetyScreen44 (BI); settings: filed as antagonist, Compound concentration 10.0 uM
T3 sequence (whole entry): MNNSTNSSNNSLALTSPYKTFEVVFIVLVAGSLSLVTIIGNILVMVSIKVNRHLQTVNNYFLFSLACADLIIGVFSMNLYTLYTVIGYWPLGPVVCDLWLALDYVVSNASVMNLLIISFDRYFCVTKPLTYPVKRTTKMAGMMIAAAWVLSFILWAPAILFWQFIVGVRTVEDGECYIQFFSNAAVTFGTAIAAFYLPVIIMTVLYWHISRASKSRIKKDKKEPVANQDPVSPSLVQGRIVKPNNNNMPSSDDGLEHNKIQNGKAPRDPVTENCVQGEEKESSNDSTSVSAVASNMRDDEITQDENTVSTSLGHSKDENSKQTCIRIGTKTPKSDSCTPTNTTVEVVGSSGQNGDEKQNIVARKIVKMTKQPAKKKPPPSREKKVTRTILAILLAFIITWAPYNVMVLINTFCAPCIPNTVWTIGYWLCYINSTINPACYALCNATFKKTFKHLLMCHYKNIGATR

[20] = molecular target: Muscarinic acetylcholine receptor M3 (Homo sapiens) (UniProt P20309); test: M3/H Eurofins SafetyScreen44 (BI); settings: Compound concentration 10.0 uM
Muscarinic acetylcholine receptor M3 (Homo sapiens), sequence (P20309 whole entry, looked up): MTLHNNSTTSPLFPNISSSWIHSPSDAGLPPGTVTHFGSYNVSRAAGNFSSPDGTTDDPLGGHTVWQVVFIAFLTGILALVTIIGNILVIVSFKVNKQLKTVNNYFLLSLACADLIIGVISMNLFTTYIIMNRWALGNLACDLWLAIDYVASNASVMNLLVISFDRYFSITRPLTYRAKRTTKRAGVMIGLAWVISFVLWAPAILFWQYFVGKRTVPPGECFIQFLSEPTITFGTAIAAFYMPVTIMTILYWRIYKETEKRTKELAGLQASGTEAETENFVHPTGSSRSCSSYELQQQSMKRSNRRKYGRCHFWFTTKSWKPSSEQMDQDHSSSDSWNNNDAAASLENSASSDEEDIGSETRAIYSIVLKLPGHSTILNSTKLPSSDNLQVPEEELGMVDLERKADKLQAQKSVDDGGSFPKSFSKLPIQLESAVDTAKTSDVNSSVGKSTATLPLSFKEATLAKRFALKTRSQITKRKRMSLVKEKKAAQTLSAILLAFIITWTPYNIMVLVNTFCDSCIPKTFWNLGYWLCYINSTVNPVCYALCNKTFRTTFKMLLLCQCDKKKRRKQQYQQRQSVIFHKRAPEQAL

[21] = molecular target: MAO-A (Amine oxidase [flavin-containing] A) (Rattus norvegicus, UniProt P21396); test: MAO-A_ANTAG Eurofins SafetyScreen44 (BI); design: scale not given: the % may be the effect or the level left; settings: compound concentration 10 uM, read-out: % Ctrl
[22] = molecular target: Mu-type opioid receptor (Homo sapiens) (UniProt P35372); test: MU/H Eurofins SafetyScreen44 (BI); settings: Compound concentration 10.0 uM
Mu-type opioid receptor (Homo sapiens), sequence (P35372 whole entry): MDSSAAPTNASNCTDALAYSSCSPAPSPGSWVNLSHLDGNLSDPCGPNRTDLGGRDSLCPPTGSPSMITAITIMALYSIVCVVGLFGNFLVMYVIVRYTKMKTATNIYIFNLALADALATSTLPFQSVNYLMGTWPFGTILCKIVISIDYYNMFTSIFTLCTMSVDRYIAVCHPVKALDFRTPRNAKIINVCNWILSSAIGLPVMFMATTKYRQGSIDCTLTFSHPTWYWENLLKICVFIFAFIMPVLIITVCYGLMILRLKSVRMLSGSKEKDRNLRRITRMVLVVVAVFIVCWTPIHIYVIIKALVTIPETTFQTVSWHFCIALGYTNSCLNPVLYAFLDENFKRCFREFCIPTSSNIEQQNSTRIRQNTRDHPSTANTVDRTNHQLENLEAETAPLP

[23] = molecular target: Glutamate NMDA receptor (Rattus norvegicus) (UniProt P35439+Q00959+Q00960+Q00961+Q62645+Q8VHN2+Q9R1M7); test: NMDA/R Eurofins SafetyScreen44 (BI); format: protein-complex assay; settings: Compound concentration 10.0 uM
[24] = molecular target: 3',5'-cyclic-AMP phosphodiesterase 4D (Homo sapiens) (UniProt Q08499); test: PDE4D2 Eurofins SafetyScreen44 (BI); settings: Compound concentration 10.0 uM
[25] = molecular target: Vasopressin V1a receptor (Homo sapiens) (UniProt P37288); test: V1A/HUM Eurofins SafetyScreen44 (BI); settings: Compound concentration 10.0 uM

Prostaglandin G/H synthase 1 (Homo sapiens), sequence (P23219 whole entry): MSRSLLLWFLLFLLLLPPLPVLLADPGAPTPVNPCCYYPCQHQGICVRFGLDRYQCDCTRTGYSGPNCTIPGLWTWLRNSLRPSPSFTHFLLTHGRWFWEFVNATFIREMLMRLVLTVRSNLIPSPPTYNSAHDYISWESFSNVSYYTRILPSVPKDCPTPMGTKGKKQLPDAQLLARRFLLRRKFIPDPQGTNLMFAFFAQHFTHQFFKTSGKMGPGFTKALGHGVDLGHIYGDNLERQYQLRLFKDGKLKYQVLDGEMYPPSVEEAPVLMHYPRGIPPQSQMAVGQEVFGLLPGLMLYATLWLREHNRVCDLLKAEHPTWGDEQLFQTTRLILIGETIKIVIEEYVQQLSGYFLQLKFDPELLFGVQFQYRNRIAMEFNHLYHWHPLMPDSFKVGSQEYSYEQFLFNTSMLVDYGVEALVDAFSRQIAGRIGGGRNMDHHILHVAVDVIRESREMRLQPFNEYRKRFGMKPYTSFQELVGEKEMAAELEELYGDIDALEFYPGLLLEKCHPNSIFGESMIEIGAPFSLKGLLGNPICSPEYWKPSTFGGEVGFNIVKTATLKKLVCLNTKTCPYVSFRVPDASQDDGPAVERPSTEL

Row | IC50 [1] | Compound | residual activity [2] [%] | residual activity [3] [%] | residual activity [4] [%] | residual activity [5] [%] | residual activity [6] [%] | residual activity [7] [%] | residual activity [8] [%] | residual activity [9] [%] | residual activity [10] [%] | activity at 10 µM [11] | residual activity [12] [%] | residual activity [13] [%] | residual activity [14] [%] | residual activity [15] [%] | residual activity [16] [%] | residual activity [17] [%] | residual activity [18] [%] | residual activity [19] [%] | residual activity [20] [%] | other results
1 | 10.2 µM (not active) | C[C@@H]1C[C@H](C)CN(c2ncc(Cl)c(Nc3ccc4c(c3)cc(OC(C)(C)C(=O)O)c(=O)n4C)n2)C1 | 82 | 97 | 125 | 107 | 111 | 104 | 104 | 99 | 89 | 104% (not active) | 103 | 137 | 86 | 97 | 97 | 86 | 128 | 111 | 111 | activity at 10 µM [21]: 96% (not active); residual activity [22]: 44%; residual activity [23]: 88%; residual activity [24]: 87%; residual activity [25]: 97%
2 | ≤ 0.003 µM (active) | CNC(=O)COc1cc2cc(Nc3nc(N4C[C@H](C)C[C@H](C)C4)ncc3Cl)ccc2n(C)c1=O | 90 | 90 | 112 | 92 | 106 | 111 | 103 | 99 | 101 | 99% (not active) | 96 | 100 | 115 | 100 | 99 | 105 | 93 | 102 | 110 | activity at 10 µM [21]: 89% (not active); residual activity [22]: 81%; residual activity [23]: 78%; residual activity [24]: 100%; residual activity [25]: 85%
